Patent US20060148725A1, “Selective 11beta HSD inhibitors and methods of use thereof” (The Miriam Hospital, priority 2001, published 2006)

Key:
[1] = test system: rat aortic rings; assay: Contractile response of rat aortic rings to phenylephrine; format: cell-based; details: rings incubated 24 hours with corticosterone 10 nmol/L and antisense 3 μmol/L; graded phenylephrine
Description: Male Sprague-Dawley (1 50-200 g) rats were anesthetized with pentobarbital (50 mg/kg IP), and a median sternotomy was performed followed by the rapid removal of the thoracic aorta. The adventitia was removed, but the endothelium was left intact. The aorta was cut into 2-3 mm rings and individual rings were placed into a single well of a twenty four well culture plate and incubated at 37° C. under 95% O2-5% CO2. Each well contained 1 mL of DMEM/F12 containing 1% fetal bovine serum, streptomycin (100 μg/ml), penicillin (100 units/ml) and amphotericin (0.25 μg/ml). […]
For contraction measurements, aortic rings were suspended by tungsten wires with 1 g of tension and placed in a vessel bath containing serum free DMEM/F12 media at 37° C. aerated with 95% O2-5% CO2, at pH 7.4. […] The intensity of contraction was assessed by use of a Narishige micromanipulator and model FT03 force transducer (Grass Instrument Co. West Warwick, R.I.). Measurements were recorded on computer using the Labview 4.1 Virtual Instrument System (National Instruments, Austin, Tex.).

[2] = test system: 11β-HSD1; assay: Conversion of 3H-corticosterone to 11-dehydrocorticosterone by aortic rings, 11β-HSD1 antisense; format: cell-based, rat; details: 3H-corticosterone 10 nM, antisense 3 μM, 24 hrs
Description: (§1) The effects of 11β-HSD1 and 11β-HSD2 antisense on the inter-conversion of ^3H-corticosterone and ^3H-11-dehydro-corticosterone by aortic rings was also determined. Rings (2-3 mm) obtained in a similar manner as those in the contraction studies, were incubated in 1 ml DMEM/F12 media containing 1% FBS at 37° C. under 95% O2-5% CO2 in 24-well culture plates. Rings were incubated for 24 hours with: • (i) ^3H-corticosterone (10 nmol/L)±11β-HSD2 or 11β-HSD1 antisense (3 μmol/L); control groups received nonsense oligomers. The amount of ^3H-11-dehydro-corticqsterone in the incubation medium after 24 hrs was then measured. The effects of 11β-HSD1 antisense/nonsense were measured in quadruplicate (n=6 aortic rings per well) and the effects of 11β-HSD2 antisense/nonsense in duplicate (n=8 aortic rings per well), • (ii) ^3H-11-dehydro-corticosterone (10 nmol/L)±11β-HSD1 antisense (3 μmol/L); this experiment was performed in duplicate (n=10 aortic rings per well). Control groups were incubated with the appropriate nonsense oligomer. ^3H-corticosterone in the incubation medium after 24 hrs was then measured. In this experiment, aortic rings were also analyzed for ^3H-corticosterone content. Rings from duplicate incubations (total n=20) were blotted dry, pooled and homogenized in 50 % methanol using a Polytron. […]

[3] = test system: 11β-HSD1; assay: RT-PCR analysis of 11β-HSD1 expression in cultured vascular cells; format: cell-based; details: cultured rat vascular endothelial and smooth muscle cells
Source text: (§2) Since 11β-HSD2 appears to exist only in endothelial cells, this observation supports a role for the action of glucocorticoids in affecting endothelial cell function. […] Further experiments to determine whether antisense oligomers down-regulate mRNA and protein expression of their respective 11β-HSD isoform under conditions in which they enhance contractile responses in aortic rings will be done.

[4] = target: 11β-HSD1 Reductase (Rattus norvegicus, UniProt P16232); assay: Metabolism of 3H-11-dehydrocorticosterone back to corticosterone by aortic rings; format: cell-based; design: from tissue; host or cells: rat (Sprague-Dawley) thoracic aortic rings, endothelium intact; details: 24 hours
Description: as §1

[5] = test system: 11β-HSD2; assay: RT-PCR analysis of 11β-HSD2 expression in cultured vascular cells; format: cell-based; details: cultured rat vascular endothelial and smooth muscle cells
Source text: as §2

[6] = test system: 11β-HSD2; assay: Conversion of 3H-corticosterone to 11-dehydrocorticosterone by aortic rings, 11β-HSD2 antisense; format: cell-based, rat; details: antisense 3 μM, 24 hrs
Description: as §1

Chain of 11β-HSD1 Reductase (P16232 whole entry): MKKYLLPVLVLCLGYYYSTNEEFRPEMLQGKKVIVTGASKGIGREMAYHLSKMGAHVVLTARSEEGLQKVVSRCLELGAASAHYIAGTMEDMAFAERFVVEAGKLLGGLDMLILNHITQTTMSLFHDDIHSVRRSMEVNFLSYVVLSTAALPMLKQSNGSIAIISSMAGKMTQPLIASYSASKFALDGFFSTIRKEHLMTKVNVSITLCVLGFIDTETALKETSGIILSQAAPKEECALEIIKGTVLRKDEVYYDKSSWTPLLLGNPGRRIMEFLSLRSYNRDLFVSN

Row | Substance | contractile response to phenylephrine compared to corticosterone plus nonsense oligomers [1] | conversion of corticosterone to 11-dehydrocorticosterone, lower than with 11β-HSD1 nonsense oligomers [2] | expression of 11β-HSD1 isoform by RT-PCR [3] | production of 3H-corticosterone from 3H-11-dehydrocorticosterone, incubation media, compared to nonsense oligomers ([4]; incubation media) | production of 3H-corticosterone from 3H-11-dehydrocorticosterone, aortic ring tissue, compared to nonsense oligomers ([4]; pooled aortic ring tissue) | expression of 11β-HSD2 isoform by RT-PCR [5] | reduction in the conversion of corticosterone to 11-dehydrocorticosterone compared to 11β-HSD2 nonsense [6]
1 | 11β-HSD1 antisense: Antisense phosphorothioate oligonucleotide blocking 11β-HSD1 gene expression, 5′-CATAACTGCCGTCCAACAGC-3′ (antisense CATAACTGCCGTCCAACAGC; all phosphorothioate, sugars by position and methylation of C not given here) | significantly increased | 21% | down-regulate | markedly reduced | markedly lower |  | 
2 | 11β-HSD2 antisense: Antisense phosphorothioate oligonucleotide blocking 11β-HSD2 gene expression, 5′-AGGCCAGCGCTCCATGACTT-3′ (antisense AGGCCAGCGCTCCATGACTT; all phosphorothioate, sugars by position and methylation of C not given here) | statistically significant increase |  |  |  |  | down-regulate | 24%
